Experimental data published in the METLIN SMRT retention time set (Domingo-Almenara et al. 2019).

assay: gradient 5% acetonitrile 3 min, to 50% in 2 min, to 85% in 15 min, held 3 min, 100 µL/min; conditions: column: Zorbax Extend-C18 2.1 x 50 mm; eluents: water / acetonitrile, 0.1% formic acid
Procedure, shortened: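 Standards, all pure, were combined into mixtures of ~100 molecules and run at 100 μL/min on a Zorbax Extend-C18 column (2.1 × 50 mm, 1.8 μm) with water and acetonitrile, each containing 0.1% formic acid. A coupled quadrupole time-of-flight mass spectrometer operated in positive and negative ionization mode. Retention time values come from computationally picked adduct peaks, each inspected manually.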

In order of rising RP-LC retention time:
1. CCc1nnc2cc(N3CCN(Cc4ccc(OC(C)C)cc4)CC3)cnn12  545 s
2. Cc1nc([C@@H]2CN(Cc3ccc(Br)o3)C[C@H]2C(N)=O)n[nH]1  556 s
3. CC(NC(=O)CCNc1c(-c2ccc(F)cc2)nc2cnccn12)c1ccccn1 (stereo not drawn)  578 s
4. COC1CN(C2CCN(C(=O)CC(C)C)CC2)C12CCOCC2 (stereo not drawn)  579 s
5. COc1ccc2c(c1)c(CN1CCC(N3C[C@H](OC)[C@@H]3c3cccnc3)CC1)cn2C  579 s
6. CC(C)NC(=O)C1CCCN(c2cc(=O)n(C)c(=O)n2C)C1 (stereo not drawn)  595 s
7. Cc1ccc(CN2CCC3(CC2)CC(CC(=O)N2CCOCC2)CCO3)s1 (stereo not drawn)  595 s
8. CSc1ccccc1CN1CCC(CNC(=O)C(=O)NCc2cccs2)CC1  595 s
9. O=C(Cn1c(=O)c2cccn2c2ccc(F)cc21)NCCCN1CCCC1  598 s
10. Cc1noc([C@@H]2CN(C(=O)c3ccoc3C)C[C@H]2C(N)=O)n1  599 s
11. Cn1cccc1-c1cc2n(n1)CCC(=O)N2CCCC(=O)NCCCN1CCCCCC1  607 s
12. CN(C)c1ncncc1N1CCC(C(=O)NC2CCCCC2)CC1  607 s
13. Cc1ccc(CN(Cc2cc(=O)n3cc(Cl)ccc3n2)CC(C)C)cc1  624 s
14. COCCNc1c(-c2ccc(F)cc2)nc2sc(C(=O)NCc3ccncc3)c(C)n12  625 s
15. COc1ccc(NC(=O)c2cn3c(n2)CSCC3)cc1OC  631 s
16. O=C(NCC(F)(F)F)C1CCN(S(=O)(=O)CCN2C(=O)CCCC2=O)CC1  637 s
17. Cc1ccc(-c2cc(C(=O)N3CCN(c4ccccn4)CC3)ccn2)s1  639 s
18. CC(NC(=O)c1ccc(C(F)(F)F)cc1)C(=O)Nc1nc2ccccc2[nH]1 (stereo not drawn)  641 s
19. O=C(NCc1csc(-c2ccccc2)n1)C1CCCN(c2ccc(-c3ccco3)nn2)C1 (stereo not drawn)  641 s
20. CCOc1nccnc1N1CCC(NC(=O)c2ccc(C#N)cc2)C1 (stereo not drawn)  650 s
21. CN(C)c1ccc(-c2nc3cnccn3c2Nc2cccc(C(=O)O)c2)cc1  655 s
22. Cn1cc(-c2cc3n(n2)CCC(=O)N3CC(=O)NCC2COCCO2)c2ccccc21 (stereo not drawn)  667 s
23. COc1cccc(CNC(=O)Cn2ncc3c(c2=O)N(C2CC2)C(=O)CS3)c1  671 s
24. CC(=O)NCc1nc(-c2ccccc2Cl)no1  673 s
25. CCN(CC)S(=O)(=O)c1ccc2nc(N3CCN(C4CCCCC4)CC3)cnc2c1  674 s
26. CCn1nc(C)c(CCNC(=O)c2ccc(-c3ccc4c(c3)CCN4C(C)=O)cc2)c1C  676 s
27. O=C(O)CCC1CCN(C(=O)c2ccccc2Cl)CC1  677 s
28. O=C1CC(NC(=O)C2(c3ccc(Cl)cc3)CCCC2)CN1 (stereo not drawn)  678 s
29. CCCS(=O)(=O)N1CCC(N2C[C@H](Oc3ccccc3)[C@@H]2c2ccncc2)CC1  685 s
30. COc1ccc2c(c1)C1(CCN(S(=O)(=O)c3ccc(NC(C)=O)cc3)C1)C(=O)N2 (stereo not drawn)  686 s
31. Cc1ccc(-c2ncc(C(=O)O)c(-c3ccncc3)n2)cc1  693 s
32. COc1ccc(C2Cn3nnc(C(=O)N4CCC(C(=O)NC5CC5)CC4)c3CO2)cc1 (stereo not drawn)  699 s
33. CC1CN(c2ccccc2)c2nc3c(c(=O)n(CC(=O)O)c(=O)n3C)n2C1 (stereo not drawn)  709 s
34. COc1ccccc1-c1nc2cnccn2c1NCCC(=O)Nc1cc(F)ccc1F  723 s
35. COc1ccc(-c2nc3ccccn3c2NCc2ccccc2)cc1  724 s
36. COc1ccc(OC)c(-n2cc(C(=O)O)c3c2C(C(F)(F)F)CC(=O)N3)c1 (stereo not drawn)  730 s
37. Cc1ccc(F)cc1NS(=O)(=O)c1cc(-c2[nH]ncc2C(=O)N2CCCC2)oc1C  739 s
38. CCOc1ccccc1NC(=O)C1CCN(c2cncnc2N2CCCCC2)CC1  742 s
39. CCc1noc(-c2ccc(-n3ncc(C(=O)N(C)C)c3C)nc2)n1  748 s
40. CCC(COC(=O)c1cc(OC)c(OC)c(OC)c1)(c1ccccc1)N(C)C (stereo not drawn)  752 s
41. O=C(Nc1nnc(-c2ccno2)o1)C1CCCN(S(=O)(=O)c2ccc(Cl)s2)C1 (stereo not drawn)  757 s
42. CN1C(=O)CO[C@@H](C(=O)Nc2ccc(F)cc2F)[C@@H]1c1ccccc1  766 s
43. COc1ccc2c(c1)C1(CCN(C(=O)NCCC(C)C)C1)C(=O)N2C (stereo not drawn)  770 s
44. COC(=O)CNC(=O)N1CCN(c2nc3ccccc3n(Cc3ccccc3)c2=O)CC1  779 s
45. CCC(=O)Nc1ccc(-n2cnc(C(=O)NC(C)c3ccc(C)cc3)c2)nc1 (stereo not drawn)  781 s
46. C=Cc1ccc(CN2CCCN(c3ncccc3-c3nc(C(C)C)no3)CC2)cc1  785 s
47. Cc1ccc(OCC(=O)Nc2nnc(C3CC(=O)N(c4ccc(F)cc4)C3)o2)cc1 (stereo not drawn)  792 s
48. CCCCC(=O)N1CCCN(C2=NS(=O)(=O)C(c3ccccc3)=C2C)CC1  793 s
49. COc1ccc(-c2noc(Cn3ccn(-c4ccccc4)c(=O)c3=O)n2)cc1  794 s
50. CN1CCCc2cc(C(=O)N3CCC4(CC3)OCCO4)sc21  796 s
51. COc1ccccc1CNC(=O)Cn1c(=O)c2cc(-c3ccco3)nn2c2ncccc21  797 s
52. CCOc1ccc(C(=O)N2CCC3(CC2)N=C(c2ccccc2)NO3)cc1  799 s
53. O=C(c1c(F)cccc1F)N1CCN(S(=O)(=O)c2cc3c4c(c2)CCC(=O)N4CCC3)CC1  799 s
54. O=C(Nc1ccccc1Cl)N(Cc1ccsc1)Cc1ccccn1  806 s
55. Cc1cccc(NS(=O)(=O)c2cc3n(c2)CCN(CC(C)C)C3=O)c1  808 s
56. CCC(C)N(CC(=O)N(Cc1ccco1)CC1CCCO1)C(=O)c1ccc(OC)cc1 (stereo not drawn)  808 s
57. CCCNC(=O)N1CCCN(C2=NS(=O)(=O)C(c3ccc(C)c(C)c3)=C2C)CC1  809 s
58. Cc1ccc(S(=O)(=O)N2CCCC(Cn3c(C4CC4)nc4cccnc43)C2)cc1F (stereo not drawn)  819 s
59. Cc1ccc(F)cc1NC(=O)Cn1nc2c(Oc3cccc(F)c3)nccn2c1=O  829 s
60. O=C(CN1C(=O)C2CCCCN2c2ccc(C(=O)N3CCOCC3)cc21)Nc1ccc(Cl)cc1 (stereo not drawn)  832 s
61. CCCNC(=O)Cn1c(=O)cc(-c2nc(C(C)C)no2)c2ccccc21  835 s
62. CCc1nnc(-c2ccc3ccn(CC(=O)Nc4cccc(OC)c4)c3c2)o1  839 s
63. Cc1noc(C)c1S(=O)(=O)N1CCC(c2nn(C)c(=O)n2C2CCCC2)CC1  856 s
64. Cc1ccc(C(=O)NC2CCN(c3cc(-c4ccc(Cl)cc4)[nH]n3)C2)cc1C (stereo not drawn)  860 s
65. CCn1c(=O)c(N2CCC(C(=O)NCCc3c[nH]c4ccc(OC)cc34)CC2)nc2cccnc21  864 s
66. CN(Cc1ccco1)C(=O)c1ccc(NC(=O)C2CC2)cc1N1CCCCCC1  869 s
67. CCOc1cccc(CNC(=O)c2nnc(-c3ccc(S(=O)(=O)N(C)C)cc3)o2)c1  893 s
68. O=C(Nc1cc(F)cc(F)c1)NC1CCN(c2ccc(F)cc2)C1=O (stereo not drawn)  895 s
69. CC1CCN(c2ccc(-c3noc(CN(C)Cc4ccccc4)n3)cn2)CC1  912 s
70. CC(C)Cn1cc(S(=O)(=O)Nc2ccccc2F)c2cccnc21  926 s
71. Fc1cccc(CNc2nnc(-c3nnc(C4CC4)o3)c3ccccc23)c1  933 s
72. CSc1ccccc1-c1nnc(NC(=O)c2cc(Cl)sc2Cl)o1  937 s
73. COc1cc(NC(=O)Cn2c(=O)n(C3CCCCC3)c3ncccc32)cc(OC)c1  954 s
74. Cn1cnc2c(C(=O)Nc3ccc(F)cc3)nn(-c3ccc(Cl)cc3)c2c1=O  956 s
75. CCOc1ccccc1-c1noc(Cn2c(=O)n(-c3cccc(OC)c3)c(=O)c3sccc32)n1  964 s
76. COCCn1cc2c3c(cccc31)CN(C(=O)Nc1ccc(C)cc1C)CC2  970 s
77. Cc1ccc(S(=O)(=O)N2C(=O)CCC2C(=O)Nc2ccc(C)c(C)c2)cc1 (stereo not drawn)  973 s
78. Cc1ccc(S(=O)(=O)N2CCC(n3c(-c4ccco4)nc4cccnc43)C2)cc1Cl (stereo not drawn)  999 s
79. CCn1c(C(=O)NCc2ccccc2OC)cc2sccc21  1010 s
80. COc1ccccc1-c1nc(Cc2noc(-c3ccccc3F)n2)c(C)o1  1020 s
81. COc1ccc(OC)c(NC(=O)C2CCCN(S(=O)(=O)Cc3ccc(Cl)cc3)C2)c1 (stereo not drawn)  1050 s
82. CC(C)n1c(=O)sc2cc(S(=O)(=O)N3CCC(C(=O)Nc4cccc(Cl)c4)CC3)ccc21  1060 s
83. c1ccc2c(c1)OCC(c1nc(-c3ccc(-n4cccn4)nc3)no1)O2 (stereo not drawn)  1090 s
84. COc1cc(Nc2nc(-c3nnn(-c4ccc(Cl)cc4)c3C)ns2)cc(OC)c1  1100 s
85. O=C(Nc1cccc(Cl)c1)C1CCN(S(=O)(=O)c2cc(-c3noc(C4CC4)n3)cs2)CC1  1100 s
86. CCOc1ccc(-c2nc(CN3C(=O)C(O)(c4ccccc4)c4ccccc43)c(C)o2)cc1 (stereo not drawn)  1110 s
87. CCCCC(=O)N1CCN(c2nc3ccccc3n(CC(C)C)c2=O)CC1  1110 s
88. Cc1ccccc1-c1nc(C2CCN(S(=O)(=O)c3ccc(F)cc3)CC2)no1  1180 s
